Source: US11464823B2, “Curcumin carbon quantum dots and use thereof” (priority 2018, dated 2022)

Assays:
[1] = Cytotoxicity / cell viability (Presto blue); format: cell-based; details: human, RD cells
Protocol: The in vitro cellular viability of the as-prepared Cur-CQDs was evaluated using the Presto blue. First, approximately 7.5×10^3 RD cells/well were seeded in 96-cell plates and were fed with DMEM containing 10% fetal bovine serum (FBS). After 24 hours of incubation in a humidified incubator with 5% CO2 at 37° C., the medium was removed from each well, and RD cells were washed with phosphate buffered saline (PBS, pH 7.4). Then, sample solutions (Cur-CQDs with different concentrations) or the control solutions were added in and incubated with cells for 24 hours to 72 hours. Each concentration was tested with 4 sets of parallel samples. After that, the culture medium was replaced with Presto blue and incubated for another 1 hour at 37° C. Finally, fluorescence was measured at an excitation wavelength at 540 nm and an emission wavelength at 590 nm with a BioTek Microplate Reader. The viability of cells was expressed as the percentage of control untreated cells (100%).

EV71 = experiment: Cytopathic effect (CPE) inhibition assay, RD cells infected with EV71 (pre-, post-, co-treatment); format: cell-based, human rhabdomyosarcoma (RD) cells
Protocol: RD cells were seeded at 7.5×10^3 cells/well in 96-well plates and incubated for 24 hours at 37° C. To analyze how Cur-CQDs affect the infectivity of EV71, Cur-CQDs pre-treatment, post-treatment, co-treatment assay was taken as follows. For pre-treatment, Cur-CQDs were pre-incubated with RD cells at 37° C. for 24 hours and then cultured with EV71 for 48 hours at 37° C. For post-treatment, EV71 were pre-incubated with RD cells at 37° C. for 24 hours, after that, cell monolayers were washed with PBS to remove non-adherent virus and further incubated with DMEM (containing 2% FBS and Cur-CQDs) at 37° C. for 48 hours. For co-treatment, EV71 were pre-incubated with series of CQDcurs at 37° C. for 1 hour, then cultured with RD cells for 72 hours at 37° C. Negative (cells only) and positive (cells infected with EV71 without Cur-CQDs) controls were set as well.

EC50 (EV71; Enterovirus A, EV71 in RD cell, read-out: Antiviral activity EC50 (concentration at which inhibition rate of CPE reaches halfway between baseline and maximum)): > 200 µg/mL
SMILES: COc1cc(/C=C/C(=O)CC(=O)/C=C/c2ccc(O)c(OC)c2)ccc1O [Curcumin]
CC50 [1]: > 13 µg/mL | selectivity ratio (EV71; human): 0.1
